Experimental data as given in ChEMBL document CHEMBL4706535, “The development of Coronavirus 3C-Like protease (3CL) inhibitors from 2010 to 2020” (Eur J Med Chem, 2020).
pIC50, pKi: −log10 of the molar value.

How the values were obtained:
[1] = Inhibition of SARS-CoV-2 3c-like protease; set-up: species or system Severe acute respiratory syndrome coronavirus 2
[2] = Inhibition of SARS-CoV-2 3c-like protease expressed in Escherichia coli by FRET-based cleavage assay; set-up: species or system Severe acute respiratory syndrome coronavirus 2
[3] = Inhibition of SARS-CoV 3C-like protease (9970 to 10887 residues) expressed in Escherichia coli BL21(DE3) CodonPlus-RIL cells using Dabcyl-KTSAVLQSGFRKME-Edans fluorogenic peptide as substrate measured up to 60 mins by FRET method; set-up: species or system Severe acute respiratory syndrome-related coronavirus
[4] = Inhibition of SARS-CoV 3C-like protease (3241 to 3546 residues) expressed in Pichia pastoris GS115 using Dabcyl-KTSAVLQSGFRKME-Edans fluorogenic peptide as substrate measured for 18 mins by fluorescence method; set-up: species or system Severe acute respiratory syndrome-related coronavirus
[5] = Inhibition of SARS-CoV 3C-like protease (3241 to 3546 residues) expressed in Pichia pastoris GS115 using Dabcyl-KTSAVLQSGFRKME-Edans fluorogenic peptide as substrate measured for 18 mins by Lineweaver-burk plot based Dixon plot analysis; set-up: species or system Severe acute respiratory syndrome-related coronavirus
[6] = Inhibition of His-tagged SARS-CoV 3c-like protease using Abz-SVTLQSG-Tyr(NO2)R as substrate by fluorometric assay; set-up: species or system Severe acute respiratory syndrome-related coronavirus

Structure (SMILES): Oc1cc(O)c(Oc2cc(O)cc(O)c2Oc2cc(-c3c(O)cc(O)cc3O)c(O)cc2O)c(O)c1
- pIC50 [1]: 4.65

Structure (SMILES): O=C[C@H](C[C@@H]1CCNC1=O)NC(=O)[C@H](Cc1cccc(F)c1)NC(=O)c1cc2ccccc2[nH]1
- pIC50 [2]: 7.40

Structure (SMILES): CCC(Cc1c(OC)ccc(C(=O)/C=C/c2ccc(O)cc2)c1O)OO (stereo unspecified)
- pIC50 [3]: 4.94

Structure (SMILES): O=c1c(O)c(-c2ccc(O)c(O)c2)oc2cc(O)cc(O)c12 [QUERCETIN]
- pIC50 [4]: 4.14

Structure (SMILES): COc1ccc(C(=O)/C=C/c2ccc(O)cc2)c(O)c1C/C=C(\C)CCC=C(C)C [XANTHOANGELOL F]
- pIC50 [3]: 4.47

Structure (SMILES): Oc1cc(O)cc(Oc2c(O)cc(O)c3c2Oc2c(O)cc(O)cc2O3)c1 [ECKOL]
- pIC50 [1]: 5.06

Structure (SMILES): Oc1cc(O)cc(Oc2c(Oc3c(O)cc(O)cc3O)cc(O)c3c2Oc2c(O)cc(O)cc2O3)c1 [2-PHLOROECKOL]
- pIC50 [1]: 4.88

Structure (SMILES): Oc1cc(O)cc(Oc2c(O)cc(O)c3c2Oc2c(O)cc(Oc4c(O)cc(Oc5c(O)cc(O)c6c5Oc5c(O)cc(O)cc5O6)cc4O)cc2O3)c1 [DIECKOL]
- pIC50 [1]: 5.57

Structure (SMILES): C/C(=C\Cc1c(O)ccc(C(=O)/C=C/c2ccc(O)cc2)c1O)CCC(O)C(C)C (stereo unspecified)
- pIC50 [3]: 4.65

Structure (SMILES): O=C(O[C@@H]1Cc2c(O)cc(O)cc2O[C@@H]1c1cc(O)c(O)c(O)c1)c1cc(O)c(O)c(O)c1 [EPIGALOCATECHIN GALLATE]
- pIC50 [4]: 4.14

Structure (SMILES): O=C(O[C@@H]1Cc2c(O)cc(O)cc2O[C@H]1c1cc(O)c(O)c(O)c1)c1cc(O)c(O)c(O)c1 [GALLOCATECHIN GALLATE]
- pIC50 [4]: 4.33
- pKi [5]: 4.60

Structure (SMILES): Oc1cc(O)cc(Oc2c(O)cc(O)c3c2Oc2c(O)cc(Oc4c(O)cc(O)cc4O)cc2O3)c1
- pIC50 [1]: 4.38

Structure (SMILES): Oc1cc(O)cc(Oc2c(O)cc(O)c3c2Oc2c(O)cc4oc5c(Oc6cc(O)cc(O)c6)c(O)cc(O)c5c4c2O3)c1 [PHLOROFUCOFUROECKOL A]
- pIC50 [1]: 4.78

Structure (SMILES): CC(=O)N[C@H](C(=O)N[C@H](C(=O)N[C@@H](CC(C)C)C(=O)N[C@@H](C[C@@H]1CCNC1=O)C(=O)Cn1[nH]c(=O)c2ccccc2c1=O)[C@@H](C)OCc1ccccc1)C(C)C
- pIC50 [6]: 5.57

Structure (SMILES): CC(=O)N[C@H](C(=O)N[C@H](C(=O)N[C@@H](CC(C)C)C(=O)N[C@@H](C[C@@H]1CCNC1=O)C(=O)Cn1[nH]c(=O)c2c([N+](=O)[O-])cccc2c1=O)[C@@H](C)OCc1ccccc1)C(C)C
- pIC50 [6]: 6.22
